{
  "source": "patent US20220213047A1",
  "about": "“CARBONIC ANHYDRASE INHIBITORS FOR TREATMENT OF NEISSERIA GONORRHOEAE INFECTION” (Purdue Research Foundation, priority 2021, published 2022)",
  "system": "intracellular N. gonorrhoeae",
  "assay": "Intracellular clearance of N. gonorrhoeae in infected endocervical cells (End1/E6E7)",
  "type": "cell-based",
  "conditions": "5×MIC, 24 hours",
  "description": "Intracellular clearance of N. gonorrhoeae—N. gonorrhoeae is known to invade epithelial cells of the genital tract and cross the epithelial barrier into the subepithelial space^59. Previous studies have shown that N. gonorrhoeae can survive inside host cells and pass epithelial cell layers (a key step in causing disseminated infections)^60,61. Therefore, a drug candidate must also be able to kill intracellular N. gonorrhoeae in order to be an effective therapeutic. Also, we were concerned that CAIs have reduced activity in high-CO2 conditions and may not be suitable to treat intracellular infection. Thus, we examined CAIs ability to reduce the burden of intracellular N. gonorrhoeae present in infected endocervical cells^56.",
  "data": [
    {"smiles": "CO/N=C(\\C(=O)N[C@@H]1C(=O)N2C(C(=O)O)=C(CSc3nc(=O)c(=O)[nH]n3C)CS[C@H]12)c1csc(N)n1", "note": "[ceftriaxone]", "values": [
      {"measurement": "reduction in N. gonorrhoeae inside infected endocervical cells", "result": 0.32, "unit": "log10"}
    ]}
  ]
}
